# Reference: US11291208B2, “Ternary herbicide combinations” (Bayer CropScience Aktiengesellschaft, priority 2013, dated 2022)
# Assays:
# Type in all cases: in vivo
# [1] = system: PAPRH: Papaver rhoeas; assay: Herbicidal action, outdoor/field trials, post-emergence; conditions: field trials
# Method: (§1) The seeds or rhizome pieces of typical harmful plants were planted and grown under natural outdoor conditions. After the harmful plants had emerged, they were treated, as a rule at the 2- to 4-leaf stage, with various dosages of the compositions according to the invention at a water application rate of […] (converted).
# (§2) After the treatment (approx. 4-6 weeks after application), the herbidical activity of the active compounds or active compound mixtures was scored visually by comparing the treated plots with the untreated control plots. Damage and development of all above-ground parts of the plants was recorded. Scoring was done on a percentage scale (100% action=all plants dead; 50% action=50% of the plants and green plant parts dead; 0% action=no discernible action=like control plot). The score figures of in each case 4 plots were averaged.
# (§3) The growth stages of the different weed species are indicated according to the BBCH monograph “Growth stages of mono- and dicotyledonous plants”, 2nd edition, 2001, ed. Uwe Meier, Federal Biological Research Centre for Agriculture and Forestry (Biologische Bundesanstalt für Land and Forstwirtschaft). The respective BBCH stages are indicated in brackets for the different weed species.
# (§4) The dose rates of herbicidal ingredients used in each case are indicated for the respective active ingredient in brackets and refer to the amount of active ingredient per hectare (g/ha).
# (§5) The herbicidal effects observed for the herbicide (mixtures) are indicated in % Activity against the respective weed. The % Damage indicated refers to the maximum damage observed in the respective crop.
# (§6) The results of the treatments are reflected in the Tables below, and the activity measured for the independent use of the active compounds (A+B)+(C) is stated in brackets. The treatments were carried out using Mesosulfuron-methyl (A1-1) or Mesosulfuron-methyl-sodium (A1-2) as component (A), and Iodosulfuron-methyl (B1-1) or Iodosulfuron-methyl-sodium (B1-2) as component (B). The results of the treatments in these cases were essentially identical.
# [2] = system: CENCY: Centaurea Cyanus; assay: as above; conditions: crop TRZAW, field trials
# Method: as §1, §2, §3, §4, §5, §6
# [3] = system: FUMOF: Fumaria officinalis; assay: as above; conditions: HALXF 276.5 g/ha, crop TRZAW, field trials
# Method: as §1, §2, §3, §4, §5, §6
# [4] = system: GALAP: Galium aparine; assay: as above; conditions: crop TRZAW, field trials
# Method: as §1, §2, §3, §4, §5, §6
# [5] = system: TRZAW: Triticum aestivum (soft wheat); assay: Crop damage in field trials (maximum damage observed in the crop)
# Method: as §1, §2, §4, §5, §6
# [6] = system: GERDI: Geranium dissectum; assay: Herbicidal action, outdoor/field trials, post-emergence; conditions: crop TRZAW, field trials
# Method: as §1, §2, §3, §4, §5, §6
# [7] = system: BROST: Bromus sterilis; assay: as above; conditions: PXD 60 g/ha, BROST (25), crop TRZAW, field trials
# Method: as §1, §2, §3, §4, §5, §6
# [8] = system: VERHE: Veronica hederifolia; assay: as above; conditions: PXD 60 g/ha, VERHE (71), crop TRZAW, field trials
# Method: as §1, §2, §3, §4, §5, §6
# [9] = system: VERPE: Veronica persica; assay: as above; conditions: crop TRZAW, field trials
# Method: as §1, §2, §3, §4, §5, §6
# [10] = system: LOLRI: Lolium rigidum; assay: as above
# Method: as §1, §2, §3, §4, §5, §6
# [11] = system: AVEST: Avena sterilis; assay: as above; conditions: TCM 7.5 g/ha, AVEST (23), crop TRZDU, field trials
# Method: as §1, §2, §3, §4, §5, §6
# [12] = system: LAMAM: Lamium amplexicaule; assay: as above; conditions: TCM 7.5 g/ha, LAMAM (32), crop TRZAW, field trials
# Method: as §1, §2, §3, §4, §5, §6
# [13] = system: LOLMU: Lolium multiflorum; assay: as above; conditions: TCM 7.5 g/ha, LOLMU (23), crop TRZDU, field trials
# Method: as §1, §2, §3, §4, §5, §6
# [14] = system: PICEC: Picris echioides; assay: as above; conditions: Helminthotheca echioides, TCM 7.5 g/ha, PICEC (22), crop TRZDU, field trials
# Method: as §1, §2, §3, §4, §5, §6
# [15] = system: LAMPU: Lamium purpureum; assay: as above; conditions: TCM 7.5 g/ha, LAMPU (61), crop TRZAW, field trials
# Method: as §1, §2, §3, §4, §5, §6
# [16] = system: MATIN: Matricaria inodora; assay: as above; conditions: Tripleurospermum inodorum, TCM 7.5 g/ha, MATIN (19), crop TRZAW, field trials
# Method: as §1, §2, §3, §4, §5, §6
# [17] = system: VIOAR: Viola arvensis; assay: as above; conditions: TCM 7.5 g/ha, VIOAR (15), crop TRZAW, field trials
# Method: as §1, §2, §3, §4, §5, §6
# [18] = system: TRZDU: Triticum aestivum (durum wheat); assay: Crop damage in field trials (maximum damage observed in the crop); conditions: TCM 7.5 g/ha
# Method: as §1, §2, §4, §5, §6
smiles,measurement,setting,value
"COc1c(Cl)ccc(-c2cc(N)c(Cl)c(C(=O)O)n2)c1F [HALXF, 4-amino-3-chloro-6-(4-chloro-2-fluoro-3-methoxyphenyl)-2-pyridinecarboxylic acid]",inhibition at 276.5 g/ha,"[1]; HALXF 276.5 g/ha, PAPRH, crop TRZAW",75%
same,inhibition at 276.5 g/ha,"[2]; HALXF 276.5 g/ha, CENCY",45%
same,inhibition at 276.5 g/ha,[3],85%
same,inhibition at 276.5 g/ha,"[4]; HALXF 276.5 g/ha, GALAP",73%
same,% Damage,"[5]; HALXF 276.5 g/ha, listed as CENCY",0%
same,% Damage,"[5]; HALXF 276.5 g/ha, listed as FUMOF",0%
same,% Damage,"[5]; HALXF 276.5 g/ha, listed as GALAP",0%
same,% Damage,"[5]; HALXF 276.5 g/ha, listed as PAPRH",0%
"CCc1cc(C)cc(CC)c1-c1c(OC(=O)C(C)(C)C)n2n(c1=O)CCOCC2 [PXD, 8-(2,6-diethyl-4-methylphenyl)-1,2,4,5-tetrahydro-7-oxo-7H-pyrazolo[1,2-d][1,4,5]oxadiazepin-9-yl 2,2-dimethylpropanoate]",inhibition at 60 g/ha,"[6]; PXD 60 g/ha, GERDI (19)",30%
same,inhibition at 60 g/ha,[7],0%
same,inhibition at 60 g/ha,"[2]; PXD 60 g/ha, CENCY (38)",60%
same,inhibition at 60 g/ha,[8],13%
same,inhibition at 60 g/ha,"[9]; PXD 60 g/ha, VERPE (31)",0%
same,% Damage,"[5]; PXD 60 g/ha, listed as BROST (25)",0%
same,% Damage,"[5]; PXD 60 g/ha, listed as CENCY (38)",15%
same,% Damage,"[5]; PXD 60 g/ha, listed as GERDI (19)",4%
same,% Damage,"[5]; PXD 60 g/ha, listed as VERHE (71)",0%
same,% Damage,"[5]; PXD 60 g/ha, listed as VERPE (31)",0%
"COc1cc(OC)n2nc(NS(=O)(=O)c3c(C(F)(F)F)ccnc3OC)nc2n1 [PYX, N-(5,7-dimethoxy[1,2,4]triazolo[1,5-a]pyrimidin-2-yl)-2-methoxy-4-(trifluoromethyl)-3-pyridinesulfonamide]",inhibition at 17 g/ha,"[10]; PYX 17 g/ha, LOLRI (10)",20%
"COC(=O)c1csc(C)c1S(=O)(=O)NC(=O)n1nc(OC)n(C)c1=O [TCM, methyl 4-[(4,5-dihydro-3-methoxy-4-methyl-5-oxo-1H-1,2,4-triazol-1-yl)carbonylsulfamoyl]-5-methylthiophene-3-carboxylate]",inhibition at 7.5 g/ha,"[1]; TCM 7.5 g/ha, PAPRH (15), crop TRZDU",70%
same,inhibition at 7.5 g/ha,[11],33%
same,inhibition at 7.5 g/ha,"[6]; TCM 7.5 g/ha, GERDI (29)",63%
same,inhibition at 7.5 g/ha,[12],68%
same,inhibition at 7.5 g/ha,[13],43%
same,inhibition at 7.5 g/ha,"[2]; TCM 7.5 g/ha, CENCY (19)",38%
same,inhibition at 7.5 g/ha,"[9]; TCM 7.5 g/ha, VERPE",10%
same,inhibition at 7.5 g/ha,[14],69%
same,inhibition at 7.5 g/ha,[15],70%
same,inhibition at 7.5 g/ha,"[10]; TCM 7.5 g/ha, LOLRI (29), crop TRZDU, field trials",52%
same,inhibition at 7.5 g/ha,[16],20%
same,inhibition at 7.5 g/ha,[17],38%
same,inhibition at 7.5 g/ha,"[4]; TCM 7.5 g/ha, GALAP (23)",37%
same,% Damage,[18]; listed as AVEST (23),0%
same,% Damage,"[18]; listed as AVEST (23), Table 1B",0%
same,% Damage,[18]; listed as LOLMU (23),0%
same,% Damage,"[18]; listed as LOLMU (23), Table 1B",0%
same,% Damage,[18]; listed as LOLRI (29),5%
same,% Damage,"[18]; listed as LOLRI (29), Table 1B",5%
same,% Damage,[18]; listed as PAPRH (15),0%
same,% Damage,"[18]; listed as PAPRH (15), Table 1B",0%
same,% Damage,[18]; listed as PICEC (22),5%
same,% Damage,"[18]; listed as PICEC (22), Table 1B",5%
same,% Damage,"[5]; TCM 7.5 g/ha, listed as CENCY (19)",0%
same,% Damage,"[5]; TCM 7.5 g/ha, listed as CENCY (19), Table 2B",0%
same,% Damage,"[5]; TCM 7.5 g/ha, listed as GALAP (23)",0%
same,% Damage,"[5]; TCM 7.5 g/ha, listed as GALAP (23), Table 2B",0%
same,% Damage,"[5]; TCM 7.5 g/ha, listed as GERDI (29)",0%
same,% Damage,"[5]; TCM 7.5 g/ha, listed as GERDI (29), Table 2B",0%
same,% Damage,"[5]; TCM 7.5 g/ha, listed as LAMAM (32)",1%
same,% Damage,"[5]; TCM 7.5 g/ha, listed as LAMAM (32), Table 2B",1%
same,% Damage,"[5]; TCM 7.5 g/ha, listed as LAMPU (61)",1%
same,% Damage,"[5]; TCM 7.5 g/ha, listed as LAMPU (61), Table 2B",1%
same,% Damage,"[5]; TCM 7.5 g/ha, listed as MATIN (19)",0%
same,% Damage,"[5]; TCM 7.5 g/ha, listed as MATIN (19), Table 2B",0%
same,% Damage,"[5]; TCM 7.5 g/ha, listed as VERPE",1%
same,% Damage,"[5]; TCM 7.5 g/ha, listed as VERPE, Table 2B",1%
same,% Damage,"[5]; TCM 7.5 g/ha, listed as VIOAR (15)",0%
same,% Damage,"[5]; TCM 7.5 g/ha, listed as VIOAR (15), Table 2B",0%
